These results are taken from article PMC4167230, “Hydrophobic Substituents of the Phenylmethylsulfamide Moiety Can Be Used for the Development of New Selective Carbonic Anhydrase Inhibitors” (BioMed Research International, 2014).

Holding throughout (test): stopped-flow CO2 hydration assay
What all share (type): biochemical

One assay addresses T1, hCA II (Homo sapiens, UniProt P00918).
T1 construct: gene CA2; cytosolic isoform; one molecule in the asymmetric unit
The note with it: read-out: K I (nM)∗ / hCA II. From the text: stopped-flow CO2 hydration assay on hCA II

The next assay deals with T2, hCA I (Homo sapiens, UniProt P00915).
T2 construct: gene CA1; cytosolic isoform
T2 sequence (P00915 2-261): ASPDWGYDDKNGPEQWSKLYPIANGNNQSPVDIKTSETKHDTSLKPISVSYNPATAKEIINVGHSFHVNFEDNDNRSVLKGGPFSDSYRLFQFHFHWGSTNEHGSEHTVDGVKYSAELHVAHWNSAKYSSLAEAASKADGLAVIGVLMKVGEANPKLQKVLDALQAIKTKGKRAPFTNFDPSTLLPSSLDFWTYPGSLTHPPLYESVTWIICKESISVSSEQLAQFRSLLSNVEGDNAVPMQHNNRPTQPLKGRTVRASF
The note with it: read-out: K I (nM)∗ / hCA I. From the text:
stopped-flow CO2 hydration assay on hCA I

In the next assay the target is T3, hCA XII (Homo sapiens, UniProt O43570).
T3 construct: gene CA12; transmembrane isoform
T3 sequence (O43570 25-354): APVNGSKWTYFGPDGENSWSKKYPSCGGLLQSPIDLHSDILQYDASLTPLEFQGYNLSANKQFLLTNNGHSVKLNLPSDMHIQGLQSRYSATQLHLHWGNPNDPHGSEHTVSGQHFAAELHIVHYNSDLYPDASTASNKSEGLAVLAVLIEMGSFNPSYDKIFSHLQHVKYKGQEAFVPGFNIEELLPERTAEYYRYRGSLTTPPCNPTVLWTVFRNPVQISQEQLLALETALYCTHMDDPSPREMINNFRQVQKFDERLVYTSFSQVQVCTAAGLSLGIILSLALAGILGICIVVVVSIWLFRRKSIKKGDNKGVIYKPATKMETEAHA
As to conditions: read-out: K I (nM)∗ / hCA XII. From the text:
stopped-flow CO2 hydration assay on hCA XII

In the case of `CC#CCOc1ccc(CNS(N)(=O)=O)cc1` [compound 14, N-[4-(But-2-yn-1-yloxy)benzyl]sulfuric Diamide], the figures for the Ki on hCA II, at hCA I and on hCA XII were 9.5 nM, 1810 nM and 8.1 nM, respectively.

As to `CC#CCOc1ccc(C=NS(N)(=O)=O)cc1` [compound 13, N-([4-(But-2-yn-1-yloxy)phenyl]methylidene)sulfuric Diamide], the Ki at hCA II was 9.8 nM; on hCA I, 1940 nM; at hCA XII, 8.4 nM.

Take `NS(=O)(=O)NCc1ccc(O)cc1` [compound 11, N-(4-Hydroxybenzyl)sulfuric Diamide]: the values for the Ki at hCA II, on hCA I and at hCA XII were 74.1 nM, 2180 nM and 5.8 nM, respectively.

Consider `Cc1cc(COc2ccc(CNS(N)(=O)=O)cc2)c2ccccc2n1` [compound 16, N-{4-[(2-Methylquinolin-4-yl)methoxy]benzyl}sulfuric Diamide], for which the Ki at hCA II worked out at 43.3 nM; on hCA I, 1440 nM; on hCA XII, 6.6 nM.

Consider `COc1ccc(CNS(N)(=O)=O)cc1` [compound 12, N-(4-Methoxybenzyl)sulfuric Diamide], for which the Ki came to 134 nM on hCA II, 4050 nM at hCA I and 6.6 nM on hCA XII.

As for `Cc1cc(COc2ccc(C=NS(N)(=O)=O)cc2)c2ccccc2n1` [compound 15, N-({4-[(2-Methylquinolin-4-yl)methoxy]phenyl}methylidene)sulfuric Diamide], the figures for the Ki at hCA II, at hCA I and on hCA XII were 188 nM, 1650 nM and 6.5 nM, respectively.
